In patent US8415469B2, “Compounds and methods for kinase modulation, and indications therefor” (Plexxikon Inc., priority 2005, dated 2013):

Key:
Type in all cases: biochemical
[1] = target: T1, B-Raf (Homo sapiens, UniProt P15056); experiment: AlphaScreen kinase assay, B-Raf; settings: read-out: IC50, activity toward kinase B-Raf
T1 construct: purchased Upstate Biotechnology

[2] = target: T2, B-Raf V600E (Homo sapiens, UniProt P15056, V600E); experiment: AlphaScreen kinase assay, B-Raf V600E; settings: read-out: IC50, activity toward kinase B-Raf V600E
T2 construct: P4254. pFastBacBD-CDC37 BRAF D437-K722-X, V600E; His6 with pFastBac HT leader (TEV site) (N); made in house; host or cells: Sf9 (baculovirus; chaperone CDC37 co-expressed)
T2 sequence (P15056 with tags, fused parts or gaps V600E): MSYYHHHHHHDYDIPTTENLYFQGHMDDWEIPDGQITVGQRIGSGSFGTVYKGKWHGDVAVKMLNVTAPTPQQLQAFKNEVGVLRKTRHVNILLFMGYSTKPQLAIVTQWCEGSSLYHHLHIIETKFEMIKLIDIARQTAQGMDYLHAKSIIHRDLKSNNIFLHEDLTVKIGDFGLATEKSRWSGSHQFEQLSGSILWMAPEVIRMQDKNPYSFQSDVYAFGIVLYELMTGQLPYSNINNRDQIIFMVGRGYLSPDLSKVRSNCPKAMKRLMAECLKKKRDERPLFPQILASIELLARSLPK

[3] = target: T3, Fms (Homo sapiens, UniProt P07333); experiment: AlphaScreen kinase assay, Fms; settings: read-out: IC50, activity toward kinase Fms
T3 construct: purchased Upstate Biotechnology
T3 sequence (P07333 20-972): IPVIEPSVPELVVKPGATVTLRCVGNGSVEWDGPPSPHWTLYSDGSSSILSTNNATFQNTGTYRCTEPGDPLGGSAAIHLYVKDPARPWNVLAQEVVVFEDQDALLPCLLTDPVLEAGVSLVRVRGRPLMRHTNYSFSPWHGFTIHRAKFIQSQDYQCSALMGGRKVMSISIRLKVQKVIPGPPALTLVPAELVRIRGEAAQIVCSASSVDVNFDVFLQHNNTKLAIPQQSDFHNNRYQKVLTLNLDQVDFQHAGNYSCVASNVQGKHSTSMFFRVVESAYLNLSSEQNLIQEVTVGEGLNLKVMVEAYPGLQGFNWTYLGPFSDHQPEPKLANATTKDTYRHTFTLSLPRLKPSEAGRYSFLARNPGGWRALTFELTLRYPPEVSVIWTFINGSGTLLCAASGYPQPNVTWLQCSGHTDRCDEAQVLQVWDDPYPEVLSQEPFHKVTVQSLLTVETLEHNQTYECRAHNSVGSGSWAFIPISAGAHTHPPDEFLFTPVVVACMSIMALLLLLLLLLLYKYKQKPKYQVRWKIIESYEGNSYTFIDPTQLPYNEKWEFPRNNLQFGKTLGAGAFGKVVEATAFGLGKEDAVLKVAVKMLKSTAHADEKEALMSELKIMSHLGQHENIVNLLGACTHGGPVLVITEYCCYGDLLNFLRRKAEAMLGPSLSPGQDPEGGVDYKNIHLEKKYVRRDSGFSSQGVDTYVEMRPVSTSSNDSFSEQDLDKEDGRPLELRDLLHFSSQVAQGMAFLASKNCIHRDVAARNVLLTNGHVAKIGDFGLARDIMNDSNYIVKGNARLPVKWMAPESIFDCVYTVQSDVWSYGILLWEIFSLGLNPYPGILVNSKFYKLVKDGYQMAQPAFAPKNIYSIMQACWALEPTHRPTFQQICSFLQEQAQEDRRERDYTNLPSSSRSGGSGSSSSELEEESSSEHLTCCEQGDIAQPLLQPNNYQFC

[4] = target: T4, Jnk1 (Homo sapiens, UniProt P45983); experiment: AlphaScreen kinase assay, Jnk1; settings: read-out: IC50, activity toward kinase Jnk1
T4 construct: purchased Upstate Biotechnology
T4 sequence (P45983 whole entry): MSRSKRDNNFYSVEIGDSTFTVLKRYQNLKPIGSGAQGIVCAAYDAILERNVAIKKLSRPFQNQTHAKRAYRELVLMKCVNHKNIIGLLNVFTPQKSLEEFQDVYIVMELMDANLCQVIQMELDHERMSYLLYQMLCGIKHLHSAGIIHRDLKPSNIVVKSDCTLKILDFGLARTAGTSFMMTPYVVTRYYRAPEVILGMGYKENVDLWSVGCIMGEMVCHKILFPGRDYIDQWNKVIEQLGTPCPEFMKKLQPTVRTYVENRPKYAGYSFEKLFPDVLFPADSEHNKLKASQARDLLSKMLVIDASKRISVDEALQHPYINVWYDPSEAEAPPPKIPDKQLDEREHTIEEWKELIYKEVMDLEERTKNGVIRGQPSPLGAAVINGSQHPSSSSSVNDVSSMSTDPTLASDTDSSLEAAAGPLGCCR
Text: AlphaScreen assay was used to screen additional kinases. The assay is similarly dependent on the phosphorylation of a peptide substrate. In this assay, an antibody that recognizes phosphorylated substrate is bound to an acceptor bead. The peptide substrate is attached to biotin, which binds to a donor head that contains streptavidin. Thus phosphorylated substrate is bound by antibody and streptavidin, bringing the donor and acceptor heads into close proximity when kinase is not inhibited. The donor produces singlet oxygen which results in emission from the acceptor when they are in close proximity. Conversely, when kinase is inhibited, the donor and acceptor beads are not associated and the emission from the acceptor is reduced.
AlphaScreen assays were done using compounds dissolved in DMSO to a concentration of 20 mM. The compounds were diluted accordingly to the desired final concentrations in each sample well, using 1:3 serial dilution for a total of 8 concentration points. Plates were prepared such that each kinase reaction is 20 μl in 1× kinase buffer, 5% DMSO and 10 μM ATP. After incubation of the kinase reaction for 1 hour at room temperature, 5 μl of donor beads in stop buffer (50 mM EDTA in 1× kinase buffer) was added, the sample was mixed and incubated for 20 minutes at room temperature before adding 5 μl of acceptor beads in stop buffer. The samples were incubated for 60 minutes at room temperature and the signal per well was read on AlphaQuest reader.

[5] = target: T5, Jnk3 (Homo sapiens, UniProt P53779); experiment: AlphaScreen kinase assay, Jnk3; settings: read-out: IC50, activity toward kinase Jnk3
T5 construct: purchased Upstate Biotechnology
T5 sequence (P53779 whole entry): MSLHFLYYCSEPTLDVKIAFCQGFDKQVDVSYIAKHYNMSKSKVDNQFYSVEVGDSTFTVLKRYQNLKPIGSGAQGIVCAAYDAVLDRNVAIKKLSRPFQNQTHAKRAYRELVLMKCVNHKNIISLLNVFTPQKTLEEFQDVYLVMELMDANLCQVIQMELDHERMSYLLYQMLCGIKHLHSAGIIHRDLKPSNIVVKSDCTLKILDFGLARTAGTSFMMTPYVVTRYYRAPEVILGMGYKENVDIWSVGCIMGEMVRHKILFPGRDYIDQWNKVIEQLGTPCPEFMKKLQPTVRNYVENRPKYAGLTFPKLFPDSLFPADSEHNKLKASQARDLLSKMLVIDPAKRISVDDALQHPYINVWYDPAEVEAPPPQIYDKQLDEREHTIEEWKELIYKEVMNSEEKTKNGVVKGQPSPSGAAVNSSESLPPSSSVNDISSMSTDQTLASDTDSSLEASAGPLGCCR

[6] = target: T6, Kit (Homo sapiens, UniProt P10721); experiment: AlphaScreen kinase assay, Kit; settings: read-out: IC50, activity toward kinase Kit
T6 construct: P1332.N6 BI PTP KIT M552-K948-X COD; His6 (N); made in house; host or cells: E. coli (PTP1B co-expressed)
T6 sequence (P10721 with tags, fused parts or gaps): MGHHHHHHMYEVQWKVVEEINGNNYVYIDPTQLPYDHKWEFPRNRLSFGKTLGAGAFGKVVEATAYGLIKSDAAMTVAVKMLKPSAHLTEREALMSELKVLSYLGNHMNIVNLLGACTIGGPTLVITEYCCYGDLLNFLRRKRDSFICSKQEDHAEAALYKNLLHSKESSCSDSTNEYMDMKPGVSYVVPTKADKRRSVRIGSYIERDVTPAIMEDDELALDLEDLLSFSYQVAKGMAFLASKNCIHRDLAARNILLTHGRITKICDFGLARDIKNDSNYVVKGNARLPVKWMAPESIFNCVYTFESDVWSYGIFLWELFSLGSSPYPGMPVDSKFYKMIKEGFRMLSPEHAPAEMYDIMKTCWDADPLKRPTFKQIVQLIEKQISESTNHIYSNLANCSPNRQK

[7] = target: T7, c-Raf-1 (Homo sapiens, UniProt P04049); experiment: AlphaScreen kinase assay, c-Raf-1; settings: read-out: IC50, activity toward kinase c-Raf-1
T7 construct: purchased Upstate Biotechnology
T7 sequence (P04049 whole entry): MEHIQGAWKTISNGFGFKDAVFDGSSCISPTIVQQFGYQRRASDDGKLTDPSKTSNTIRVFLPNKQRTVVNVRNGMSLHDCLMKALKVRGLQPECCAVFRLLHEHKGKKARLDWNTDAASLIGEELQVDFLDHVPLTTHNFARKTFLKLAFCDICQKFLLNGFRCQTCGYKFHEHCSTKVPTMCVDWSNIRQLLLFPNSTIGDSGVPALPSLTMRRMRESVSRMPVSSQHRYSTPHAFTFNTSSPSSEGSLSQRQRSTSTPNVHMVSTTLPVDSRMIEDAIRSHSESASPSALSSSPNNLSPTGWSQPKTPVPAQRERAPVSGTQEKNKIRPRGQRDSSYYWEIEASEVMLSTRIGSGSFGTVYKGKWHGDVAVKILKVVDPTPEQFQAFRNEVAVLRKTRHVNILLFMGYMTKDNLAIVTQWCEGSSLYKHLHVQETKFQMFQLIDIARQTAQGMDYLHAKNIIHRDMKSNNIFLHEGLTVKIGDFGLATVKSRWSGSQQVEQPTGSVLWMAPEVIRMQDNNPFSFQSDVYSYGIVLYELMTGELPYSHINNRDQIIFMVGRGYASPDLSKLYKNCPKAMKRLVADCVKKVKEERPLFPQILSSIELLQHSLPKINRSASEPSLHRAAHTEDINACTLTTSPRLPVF

[8] = target: T8, FGFR1 (Homo sapiens, UniProt P11362, C488A/C584S); experiment: AlphaScreen kinase assay, FGFR1; settings: read-out: IC50, activity toward kinase FGFR
T8 construct: P1351.pET N6 BI-PTP FGFR A458-E765-X C488A, C584S; made in house; host or cells: E. coli (PTP1B co-expressed)
T8 sequence (P11362 458-765 C488A/C584S): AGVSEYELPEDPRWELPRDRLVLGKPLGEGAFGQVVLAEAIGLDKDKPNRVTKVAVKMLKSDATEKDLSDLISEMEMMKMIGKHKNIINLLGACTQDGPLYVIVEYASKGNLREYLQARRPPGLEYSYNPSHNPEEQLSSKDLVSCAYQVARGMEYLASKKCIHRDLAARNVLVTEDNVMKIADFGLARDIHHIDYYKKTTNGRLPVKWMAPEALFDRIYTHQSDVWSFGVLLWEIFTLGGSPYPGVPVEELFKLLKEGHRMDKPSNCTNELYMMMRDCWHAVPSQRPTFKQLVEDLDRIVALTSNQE

[9] = target: T9, Ret (Homo sapiens, UniProt P07949); experiment: AlphaScreen kinase assay, Ret; settings: read-out: IC50, activity toward kinase Ret
T9 construct: P1378.pET-SF BI-PTP RET H661-R1012 HIS; made in house
T9 sequence (P07949 with tags, fused parts or gaps): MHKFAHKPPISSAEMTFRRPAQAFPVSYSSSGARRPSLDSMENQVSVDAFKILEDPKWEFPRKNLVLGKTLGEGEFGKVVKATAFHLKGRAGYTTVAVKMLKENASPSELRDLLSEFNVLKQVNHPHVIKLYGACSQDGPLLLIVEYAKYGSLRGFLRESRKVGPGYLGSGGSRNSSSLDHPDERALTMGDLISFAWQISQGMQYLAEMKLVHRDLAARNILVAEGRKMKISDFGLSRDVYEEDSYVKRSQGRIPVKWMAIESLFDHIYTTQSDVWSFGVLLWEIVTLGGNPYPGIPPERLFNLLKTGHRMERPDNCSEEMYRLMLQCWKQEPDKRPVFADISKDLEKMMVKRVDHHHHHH

[10] = target: T10, Flt1 (Homo sapiens, UniProt P17948); experiment: AlphaScreen kinase assay, Flt1; settings: read-out: IC50, activity toward kinase Flt1
T10 construct: P1826.pETN6 BI-PTP FLT1 M799-D1165-X WT; His6 (N); made in house; host or cells: E. coli (PTP1B co-expressed)
T10 sequence (P17948 with tags, fused parts or gaps): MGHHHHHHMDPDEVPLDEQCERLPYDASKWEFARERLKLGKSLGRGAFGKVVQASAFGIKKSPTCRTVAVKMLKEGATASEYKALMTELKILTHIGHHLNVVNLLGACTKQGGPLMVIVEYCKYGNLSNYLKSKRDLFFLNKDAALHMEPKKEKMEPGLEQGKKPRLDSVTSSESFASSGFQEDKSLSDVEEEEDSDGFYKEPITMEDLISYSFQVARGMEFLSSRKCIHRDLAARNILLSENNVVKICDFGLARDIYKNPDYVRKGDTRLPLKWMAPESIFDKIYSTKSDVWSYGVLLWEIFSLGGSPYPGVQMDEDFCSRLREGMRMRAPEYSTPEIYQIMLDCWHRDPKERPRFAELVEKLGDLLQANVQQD

[11] = target: T11, Src (Homo sapiens, UniProt P12931); experiment: AlphaScreen kinase assay, Src; settings: read-out: IC50, activity toward kinase Src
T11 construct: P1144. pET-N6 BI-PTP SRC V86-L536-X; made in house
T11 sequence (P12931 with tags, fused parts or gaps): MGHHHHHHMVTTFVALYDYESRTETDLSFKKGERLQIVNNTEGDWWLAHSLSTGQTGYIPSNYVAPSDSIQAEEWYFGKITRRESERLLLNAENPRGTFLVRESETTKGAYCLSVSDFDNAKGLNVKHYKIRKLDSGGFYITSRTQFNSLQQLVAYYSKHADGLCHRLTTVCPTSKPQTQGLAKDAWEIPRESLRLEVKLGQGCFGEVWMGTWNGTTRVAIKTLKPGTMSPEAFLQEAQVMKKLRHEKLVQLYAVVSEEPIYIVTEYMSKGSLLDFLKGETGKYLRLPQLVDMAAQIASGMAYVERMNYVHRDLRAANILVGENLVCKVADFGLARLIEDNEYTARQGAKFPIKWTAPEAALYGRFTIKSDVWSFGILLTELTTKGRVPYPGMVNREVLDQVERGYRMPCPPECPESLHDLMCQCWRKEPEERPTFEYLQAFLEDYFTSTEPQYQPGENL

Measured: IC50

T1 sequence (P15056 whole entry): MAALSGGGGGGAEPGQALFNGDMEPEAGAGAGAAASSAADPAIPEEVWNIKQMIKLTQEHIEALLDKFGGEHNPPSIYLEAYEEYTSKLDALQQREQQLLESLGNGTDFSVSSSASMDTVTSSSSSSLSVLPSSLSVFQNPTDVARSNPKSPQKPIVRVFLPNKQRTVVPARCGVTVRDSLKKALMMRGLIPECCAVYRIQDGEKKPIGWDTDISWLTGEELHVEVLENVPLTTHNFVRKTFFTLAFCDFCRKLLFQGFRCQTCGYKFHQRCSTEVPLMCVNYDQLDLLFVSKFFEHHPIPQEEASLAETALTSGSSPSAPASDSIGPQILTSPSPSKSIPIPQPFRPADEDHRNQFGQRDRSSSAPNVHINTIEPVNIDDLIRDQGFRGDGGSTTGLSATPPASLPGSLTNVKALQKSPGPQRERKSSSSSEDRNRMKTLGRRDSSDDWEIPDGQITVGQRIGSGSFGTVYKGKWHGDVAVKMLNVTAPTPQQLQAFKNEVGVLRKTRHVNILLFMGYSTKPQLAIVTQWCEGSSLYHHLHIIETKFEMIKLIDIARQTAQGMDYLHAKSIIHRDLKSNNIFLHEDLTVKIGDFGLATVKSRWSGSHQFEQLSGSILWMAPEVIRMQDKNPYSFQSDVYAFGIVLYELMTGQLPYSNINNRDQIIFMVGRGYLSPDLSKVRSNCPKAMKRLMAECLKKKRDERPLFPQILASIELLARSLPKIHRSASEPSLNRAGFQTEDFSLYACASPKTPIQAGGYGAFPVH

O=C(Nc1cccc(C(=O)c2c[nH]c3ncccc23)c1)Nc1ccc(F)c(F)c1 [Compound P-1706, 1-(3,4-Difluoro-phenyl)-3-[3-(1H-pyrrolo[2,3-b]pyridine-3-carbonyl)-phenyl]-urea]
≤ 10 µM: [1] | [2] | [3] | [4] | [5] | [6]

CS(=O)(=O)Nc1cccc(-c2cnc3[nH]cc(C(=O)c4c(Cl)ccc(NS(C)(=O)=O)c4F)c3c2)c1 [Compound P-0745, N-{4-Chloro-2-fluoro-3-[5-(3-methanesulfonylamino-phenyl)-1H-pyrrolo[2,3-b]pyridine-3-carbonyl]-phenyl}-methanesulfonamide]
≤ 10 µM: [1] | [2] | [7] | [8] | [4] | [9]

CCCS(=O)(=O)Nc1cccc(C(=O)c2c[nH]c3ncc(-c4ccccc4)cc23)c1C [Compound P-1610]
not listed: [6] | [7] | [9] | [11]
≤ 10 µM: all other assays above

O=C(Nc1cccc(C(=O)c2c[nH]c3ncc(Cl)cc23)c1)Nc1ccon1 [Compound P-1775, 1-[3-(5-Chloro-1H-pyrrolo[2,3-b]pyridine-3-carbonyl)-phenyl]-3-isoxazol-3-yl-urea]
≤ 10 µM: [1] | [2] | [3] | [4] | [5]

O=C(O)/C=C/c1cccc(-c2cnc3[nH]cc(C(=O)c4ccc(Cl)cc4Cl)c3c2)c1 [Compound P-1585]
≤ 10 µM: [1] | [2] | [8] | [10] | [4] | [5]

NC(=O)c1cccc(-c2cnc3[nH]cc(C(=O)c4cccc(N)c4)c3c2)c1 [Compound P-1592]
≤ 10 µM: [1] | [2] | [8] | [10] | [4] | [5]

CCCCN(CCCC)C(=O)n1ccc2c(C(=O)c3c[nH]c4ncc(-c5cccnc5)cc34)cccc21 [Compound P-1636, 4-(5-pyridin-3-yl-1H-pyrrolo[2,3-b]pyridine-3-carbonyl)-indole-1-carboxylic acid dibutylamide]
≤ 10 µM: [1] | [2] | [3] | [4] | [5]

c1ccc(Oc2cccc(Nc3c[nH]c4ncccc34)c2)cc1 [Compound P-1496, (3-Phenoxy-phenyl)-(1H-pyrrolo[2,3-b]pyridin-3-yl)-amine]
≤ 10 µM: [3] | [11]

Nc1ccc(F)c(C(=O)c2c[nH]c3ncc(-c4ccccc4)cc23)c1 [Compound P-1577]
≤ 10 µM: [1] | [2] | [8] | [10] | [4] | [5]

CN(C)c1ccc(Nc2ccc3cc[nH]c3n2)cc1 [Compound P-1356, N,N-Dimethyl-N′-(1H -pyrrolo[2,3-b]pyridin-6-yl)-benzene-1,4-diamine]
≤ 10 µM: [4] | [5]

Cc1cccc(C)c1C(=O)c1c[nH]c2ncccc12 [Compound P-1484]
≤ 10 µM: [6] | [11]

CCCCNC(=O)Nc1ccc(F)c(C(=O)c2c[nH]c3ncc(-c4cccnc4)cc23)c1 [Compound P-1534, 1-Butyl-3-[4-fluoro-3-(5-pyridin-3-yl-1H-pyrrolo[2,3-b]pyridine-3-carbonyl)-phenyl]-urea]
not listed: [7] | [9] | [11]
≤ 10 µM: all other assays above

CCCS(=O)(=O)Nc1ccc(F)c(C(=O)c2c[nH]c3ncc(-c4ccc(F)cc4)cc23)c1F [Compound P-1260, Propane-1-sulfonic acid {2,4-difluoro-3-[5-(4-fluoro-phenyl)-1H-pyrrolo[2.3 b]pyridine-3-carbonyl]-phenyl}-amide]
not listed: [5] | [9] | [11]
≤ 10 µM: all other assays above

O=C(c1c[nH]c2ncc(-c3ccc(Cl)cc3)cc12)c1cccc2c1ccn2C(=O)NCc1ccccc1 [Compound P-1618, 4-[5-(4-Chloro-phenyl)-1H-pyrrolo[2,3-b]pyridine-3-carbonyl]-indole-1-carboxylic acid benzylamide]
≤ 10 µM: [10] | [3] | [4] | [5]

O=C(O)COc1ccc(F)c(Cc2c[nH]c3ncc(-c4cccnc4)cc23)c1F [Compound P-1468, [2,4-difluoro-3-(5-pyridin-3-yl-1H-pyrrolo[2,3-b]pyridin-3-ylmethyl)-phenoxy]-acetic acid]
≤ 10 µM: [8] | [10] | [3] | [4] | [5] | [6]

CCCS(=O)(=O)Nc1ccc(F)c(Cc2c[nH]c3ncc(NCCN4CCN(C)CC4)cc23)c1F [Compound P-1345]
≤ 10 µM: [2] | [8] | [11]

COc1cccc(NC(=O)Nc2cccc(C(=O)c3c[nH]c4ncccc34)c2)c1 [Compound P-1707, 1-(3-Methoxy-phenyl)-3-[3-(1H-pyrrolo[2,3-b]pyridine-3-carbonyl)-phenyl]-urea]
≤ 10 µM: [1] | [2] | [3] | [4] | [5] | [6]

CCCS(=O)(=O)Nc1ccc(F)c(C(=O)c2c[nH]c3ncc(-c4ccc(C(N)=O)cc4)cc23)c1F [Compound P-1546, 4-{3-[2,6-Difluoro-3-(propane-1-sulfonylamino)-benzoyl]-1H-pyrrolo[2,3-b]pyridin-5-yl}-benzamide]
not listed: [9] | [11]
≤ 10 µM: all other assays above
